Measured values taken from US20110312930A1, “Aryl compounds with aminoalkyl substituents and their use” (BAYER SCHERING PHARMA AKTIENGESELLSCHAFT, priority 2008, published 2011).

Test system: HCT 116 cells transfected with a luciferase reporter under the control of an HIF-responsive sequence
Experiment: HIF-luciferase assay
Type: cell-based
Conditions: Homo sapiens; HCT 116 HIF-luciferase reporter cells, hypoxia chamber (1% O2), 24 h, luminescence
Method: HCT 116 cells were transfected in a stable manner with a plasmid which contained a luciferase reporter under the control of an HIF-responsive sequence. These cells were sown in microtitre plates [20 000 cells/cavity in RPMI 1640 medium with 10% foetal calf serum (FCS) and 100 μg/ml of hygromycin]. Incubation was carried out overnight under standard conditions (5% CO2, 21% O2, 37° C., moistened). The following morning the cells were incubated with various concentrations of the test substances (0-10 μmol/l) in a hypoxia chamber (1% O2). After 24 h, Bright Glo reagent (Promega, Wisconsin, USA) was added in accordance with the manufacturer's instructions, and after 5 min the luminescence was measured. Cells which were incubated under normoxia served as background controls.

For Cc1cc(-c2nc(-c3ccc(C(C)(C)C(F)(F)F)cc3)no2)nn1Cc1ccc(NCCN2CCCC2)nc1 [Example 14, 5-[(5-Methyl-3-{3-[4-(1,1,1-trifluoro-2-methylpropan-2-yl)phenyl]-1,2,4-oxadiazol-5-yl}-1H-pyrazol-1-yl)methyl]-N-[2-(pyrrolidin-1-yl)ethyl]pyridine-2-amine], the IC50 was 7 nM.
Compound Cc1cc(-c2nc(-c3ccc(OC(F)(F)F)cc3)no2)cn1Cc1ccc(NCCN2CCC(O)CC2)nc1 [Example 16] has an IC50 of 8 nM.
With Cc1cc(-c2nc(-c3ccc(S(=O)(=O)C(F)(F)F)cc3)no2)nn1Cc1ccc(NCCN2CCOCC2)nc1 [Example 22] the IC50 was 10 nM.
Compound Cc1cc(-c2nc(-c3ccc(OC(F)(F)F)cc3)no2)nn1Cc1ccc(NCCN2CCOCC2)nc1 [Example 24] has an IC50 of 10 nM.
Cc1cc(-c2nc(-c3ccc(OC(F)(F)F)cc3)no2)nn1Cc1cccc(C(=O)N(C)CCN(C)C)c1 [Example 48, N-[2-(Dimethylamino)ethyl]-N-methyl-3-[(5-methyl-3-{3-[4-(trifluoromethoxy)phenyl]-1,2,4-oxa-diazol-5-yl}-1H-pyrazol-1-yl)methyl]benzenecarboxamide] was tested, and the IC50 was 10 nM.
In the case of Cc1cc(-c2nc(-c3ccc(OC(F)(F)F)cc3)no2)nn1Cc1cccc(OCCN2CCCC2)c1 [Example 57, 5-(5-Methyl-1-{3-[2-(pyrrolidin-1-yl)ethoxy]benzyl}-1H-pyrazol-3-yl)-3-[4-(trifluoromethoxy)-phenyl]-1,2,4-oxadiazole], the IC50 is reported as 10 nM.
With Cc1cc(-c2nc(-c3ccc(OC(F)(F)F)cc3)no2)nn1Cc1ccc(NCCN2CCOCC2)cc1 [Example 60, 4-[(5-Methyl-3-{3-[4-(trifluoromethoxy)phenyl]-1,2,4-oxadiazol-5-yl}-1H-pyrazol-1-yl)methyl]-N-[2-(morpholin-4-yl)ethyl]aniline] the IC50 was 9 nM.
Cc1cc(-c2nc(-c3ccc(OC(F)(F)F)cc3)no2)nn1Cc1ccc(SCCN2CCCC2)cc1 [Example 67, 5-[5-Methyl-1-(4-{[2-(pyrrolidin-1-yl)ethyl]sulphanyl}benzyl)-1H-pyrazol-3-yl]-3-[4-(trifluoromethoxy)phenyl]-1,2,4-oxadiazole] gave an IC50 of 10 nM.
Compound Cc1cc(-c2nc(-c3ccc(C(C)(C)C)cc3)no2)cn1Cc1ccc(NCCN2CCCC2)nc1 [Example 71] has an IC50 of 6 nM.
Cc1cc(-c2nc(-c3ccc(OC(F)(F)F)cc3)no2)nn1Cc1ccc(NCCN2CCCC2=O)nc1 [Example 73] was tested, and the IC50 was 8 nM.
For Cc1cc(-c2nc(-c3ccc(OC(F)(F)F)cc3)no2)nn1Cc1ccc(NCCCN2CCCC2=O)nc1 [Example 74], the IC50 was 8 nM.
Work on Cc1cc(-c2nc(-c3ccc(OC(F)(F)F)cc3)no2)nn1Cc1ccc(NCCN2CCS(=O)(=O)CC2)nc1 [Example 102, N-[2-(1,1-Dioxidothiomorpholin-4-yl)ethyl]-5-[(5-methyl-3-{3-[4-(trifluoromethoxy)phenyl]-1,2,4-oxadiazol-5-yl}-1H-pyrazol-1-yl)methyl]pyridine-2-amine] yielded an IC50 of 2.5 nM.
Compound Cc1cc(-c2nc(-c3ccc(OC(F)(F)F)cc3)no2)nn1Cc1ccc(NCCN2CCC(F)(F)CC2)nc1 [Example 103, N-[2-(4,4-Difluoropiperidin-1-yl)ethyl]-5-[(5-methyl-3-{3-[4-(trifluoromethoxy)phenyl]-1,2,4-oxa-diazol-5-yl}-1H-pyrazol-1-yl)methyl]pyridine-2-amine] has an IC50 of 3 nM.
Cc1cc(-c2nc(-c3ccc(OC(F)(F)F)cc3)no2)nn1Cc1cccc(OCCN2CCOCC2)c1 [Example 123, 4-(2-{3-[(5-Methyl-3-{3-[4-(trifluoromethoxy)phenyl]-1,2,4-oxadiazol-5-yl}-1H-pyrazol-1-yl)-methyl]phenoxy}ethyl)morpholine] showed an IC50 of 1 nM.
Compound Cc1cc(-c2nc(-c3ccc(OC(F)(F)F)cc3)no2)nn1Cc1cccc(OCCN(C)C)c1 [Example 124, N,N-Dimethyl-2-{3-[(5-methyl-3-{3-[4-(trifluoromethoxy)phenyl]-1,2,4-oxadiazol-5-yl}-1H-pyrazol-1-yl)methyl]phenoxy}ethanamine] has an IC50 of 5 nM.
